# In patent US8623613B2, “Method to detect endothelial cell massive calcium accumulation death” (priority 2010, dated 2014):
# Test system: Human umbilical vein endothelial cells
# Experiment: HUVEC culture 72 hours, fast green staining, image analysis count of NSD and MCAD cells
# Details: for number of cells per field exhibiting MCAD: vehicle alone approximately 10; for number of cells showing non-specific cell death (NSD): vehicle alone approximately 125
# Experimental: After 72 hours, the cells were stained with fast green and sedimented on microscope slides with a Cytospin™ centrifuge. Endothelial cells with non-specific death (NSD) stain pale blue green and endothelial cells with specific, massive-calcium accumulation death (MCAD) stain densely refractile hyperchromatic blue-black. The number of each type of cell was quantified using image analysis software.
Molecule,number of cells per field exhibiting MCAD [cells per field],number of cells showing non-specific cell death (NSD)
bevacizumab [Avastin ®],35,about 100 cells per field
COc1cccc2c1C(=O)c1c(O)c3c(c(O)c1C2=O)C[C@@](O)(C(=O)CO)C[C@@H]3O[C@H]1C[C@H](N)[C@H](O)[C@H](C)O1 [doxorubicin],4,160 cells per field
